Measurements reported in patent US20240408170A1, “COMPOSITION FOR DECOMPOSITION OF TRYPSIN OR TMPRSS2” (Riken, priority 2021, published 2024).
Values belong to the compound of their own block, whether it stands above or below them.

Legend:
recombinant mouse PRSS2 [1] = molecular target: T1, recombinant mouse PRSS2 (Mus musculus, UniProt P07146); test: Trypsin decomposition in vitro by bacteria (western blot); format: biochemical; conditions: for trypsin-decomposing ability of P. clara (1C4) after pretreating rmPRSS2 with protease inhibitor: rmPRSS2 pretreated 30 minutes with inhibitor; for decomposition of rmPRSS2 (western blot): bacteria or culture supernatant incubated with recombinant mouse trypsin
T1 construct: purchased Sino Biological, Inc. 50383-M08H
T1 sequence (P07146 24-246): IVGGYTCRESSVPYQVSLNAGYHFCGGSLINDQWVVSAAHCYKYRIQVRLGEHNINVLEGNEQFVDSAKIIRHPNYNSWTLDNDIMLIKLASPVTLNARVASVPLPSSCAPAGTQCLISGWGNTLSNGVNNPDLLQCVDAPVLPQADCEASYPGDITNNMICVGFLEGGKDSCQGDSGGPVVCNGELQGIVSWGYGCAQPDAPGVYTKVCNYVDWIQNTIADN
Experimental: Mouse faecal samples were suspended and diluted 50-fold with phosphate buffered saline (PBS) to which a protease inhibitor cocktail (Roche) was added. Subsequently, the suspended sample was centrifuged at 15,000×g for 10 minutes at 4° C., and the supernatant was subjected to western blot. Mouse pancreatic tissue was rapidly frozen in liquid nitrogen. Proteins were extracted by TRIzol Reagent (Thermo Fisher Scientific K.K.), and the final protein concentration was adjusted to 4 μg/μL. For SDS-PAGE and blotting, Novex (registered trademark) NuPAGE (registered trademark) SDS-PAGE Gel system (Thermo Fisher Scientific K.K.) and iBlot™ 2 Dry Blotting System (Thermo Fisher Scientific K.K.) were used according to the manufacturer's instructions.
The bacteria cultured overnight were incubated with recombinant mouse trypsin (final concentration: 1 μg/mL) for 1 hour or with human trypsin (final concentration: 20 μg/mL) for 4 hours. Recombinant trypsin isoforms used were as follows: recombinant mouse PRSS2 (50383-M08H, Sino Biological, Inc.), recombinant human PRSS1 (LS-G135640), recombinant human PRSS2 (LS-G20167), and recombinant human PRSS3 (His-tag) (NBP2-52220).
In some experiments, recombinant mouse PRSS2 was first treated with one of the following trypsin inhibitors for 30 minutes before incubation with a P. clara culture solution. AEBSF (Sigma-Aldrich, final concentration: 2 mM), Leupeptin (Sigma-Aldrich, final concentration: 100 μM), and TLCK (Abcam plc., final concentration: 100 μM).
In some experiments, P. clara was cultured overnight in the presence of Tunicamycin (Sigma-Aldrich, final concentration: 10 μg/mL), 2-Fluoro-L-fucose (Cayman Chemical Company, final concentration: 250 μM), or the corresponding DMSO control, before incubation with recombinant mouse PRSS2.
In the experiment of evaluating the effect of Ca^2+, P. clara was cultured in a low Ca^2+ mGAM medium supplemented with or without 1 mM of Ca^2+, before incubation with recombinant mouse PRSS2. In the experiment in which the supernatant of P. clara was used, P. clara cultured overnight was filtered through a sterilization filter unit formed using a PVDF film having a pore size of 0.22 μm.

trypsin = test: Faecal trypsin activity of GF mice colonized by human microbiota, isolated strain mixtures or P. clara strains; format: in vivo, mouse; conditions: GF+C#5 mice, antibiotic via drinking
Experimental: Mouse intestinal contents or a mice faecal sample was diluted 500-fold (w/v) with a 0.9% NaCl solution. Human faeces were diluted 200-fold (w/v) with a 0.9% NaCl solution. The diluted solution was vortexed in a mini shaker for 20 minutes at 2,000 rpm, homogenized by pipetting, and then centrifuged at 10,000×g for 15 minutes at 4° C. Subsequently, the supernatant was recovered to measure the trypsin activity by a Trypsin Activity Assay Kit (Colorimetric) for 100 tests (ab102531) according to the manufacturer's protocol. The absorbance at 405 nm was measured in a kinetic mode by using a PerkinElmer 2030 Multilabel Reader.
Human faecal samples were collected at RIKEN and Keio University according to a research protocol approved by the Research Ethics Review Committee. Informed consent was obtained from each subject. A human faecal sample (preserved in 20% (v/v) glycerol) was transferred to an anaerobic chamber, thawed, and then sieved with a 100 μm mesh, transferred to a GF isolator, and orally administered to GF mice by 200 μL/mouse.
For an antibiotic treatment, each solution of 0.5 g/L ampicillin (Nacalai Tesque, Inc.), 0.5 g/L metronidazole (Nacalai Tesque, Inc.), and 1.0 g/L tylosin (Sigma-Aldrich) was produced with autoclaved tap water. The antibiotic solution was given, for 12 days, to mice to which the faecal contents derived from a donor C were orally administered. The antibiotic solution was changed once a week.
The isolated strains except for Phasolactobacterium faecium (3G4) were cultured in an anaerobic chamber at a temperature of 37° C. for 1 to 2 days. Phasolactobacterium faecium was cultured for 2 to 3 days in an Oxoid CM0619 agar plate to which 80 mM sodium succinate was added. The colonies were recovered and resuspended in EGEF. The bacterial density was adjusted based on an OD600 value, and the mixture of the cultured strains was orally administered to GF mice (150 μL/mouse, total bacterial count: about 1 to 2×10^8 CFU).

IgA heavy chain = test: Ex vivo incubation of mouse faeces at 37° C. for 48 hours, western blot; conditions: GF faeces mixed with 2-mix+WT faeces, trypsin inhibitor added
Experimental: Mouse faecal samples were suspended and diluted 50-fold with phosphate buffered saline (PBS) to which a protease inhibitor cocktail (Roche) was added. Subsequently, the suspended sample was centrifuged at 15,000×g for 10 minutes at 4° C., and the supernatant was subjected to western blot. Mouse pancreatic tissue was rapidly frozen in liquid nitrogen. Proteins were extracted by TRIzol Reagent (Thermo Fisher Scientific K.K.), and the final protein concentration was adjusted to 4 μg/μL. For SDS-PAGE and blotting, Novex (registered trademark) NuPAGE (registered trademark) SDS-PAGE Gel system (Thermo Fisher Scientific K.K.) and iBlotTM 2 Dry Blotting System (Thermo Fisher Scientific K.K.) were used according to the manufacturer's instructions. The antibodies used are as follows. A rabbit anti-mouse PRSS2 antibody (Cosmo Bio Co., Ltd.), a rabbit anti-mouse HSP90 antibody (#4877, Cell Signaling Technology, Inc.), a rabbit anti-human PRSS2 antibody (LS-B15726, LSBio), a rabbit anti-human PRSS1 antibody (LS-331381, LSBio), a rabbit anti-mouse TMPRSS2 antibody (LS-C373022, LSBio, against the sequence of the protease domain), a rabbit anti-6-His antibody ([…]-[…], Bethyl Laboratories, Inc.), a goat anti-mouse IgA a chain antibody (HRP) (ab97235, Abcam plc.), a rat anti-mouse κ chain antibody (HRP) (ab99632, Abcam plc.), a rabbit anti-mouse CELA3b antibody (OACD03205, Aviva Systems Biology Corporation), an anti-rabbit IgG antibody (HRP) (#7074, Cell Signaling Technology, Inc.), and a rabbit anti-mouse Reg3 antibody (51153-[…], Sino Biological, Inc.).

recombinant mouse PRSS2 [2] = molecular target: T1, recombinant mouse PRSS2; test: Binding of Alexa Fluor 488-labeled rmPRSS2 to the surface of bacteria (confocal microscope)
Experimental: Recombinant mouse PRSS2 was labeled with Alexa Fluor™ 488 using an Alexa Fluor™ 488 Antibody Labeling Kit (Δ20181, Thermo Fisher Scientific K.K.), and was pretreated with an AEBSF inhibitor (150 μg/mL rmPRSS2 with 20 mM AEBSF).
Mouse PRSS2 labeled with Alexa Fluor™ 488 was incubated in an anaerobic chamber for 20 minutes with bacteria cultured at a final concentration of 5 μg/mL. The mixture was centrifuged, washed once with PBS, and then resuspended in PBS. A Leica TCS SP8 confocal microscope was used for capturing a confocal image.

Compound: NCCc1ccc(S(=O)(=O)F)cc1 [AEBSF, reference compound]
trypsin-decomposing ability of P. clara (1C4) after pretreating rmPRSS2 with protease inhibitor (recombinant mouse PRSS2 [1]): lost

Compound: CC1(C)S[C@@H]2[C@H](NC(=O)[C@H](N)c3ccccc3)C(=O)N2[C@H]1C(=O)O [Amp, Ampicillin]
faecal trypsin activity (trypsin): more decreased

Compound: Cc1ncc([N+](=O)[O-])n1CCO [MNZ, metronidazole]
faecal trypsin activity (trypsin): no decrease

Compound: Cc1ccc(S(=O)(=O)N[C@@H](CCCCN)C(=O)CCl)cc1 [TLCK, reference compound]
trypsin-decomposing ability of P. clara (1C4) after pretreating rmPRSS2 with protease inhibitor (recombinant mouse PRSS2 [1]): lost | decomposition of IgA heavy chain in mixed faeces (IgA heavy chain): inhibited the decomposition of the IgA heavy chain

Compound: CC[C@H]1OC(=O)C[C@@H](O)[C@H](C)[C@@H](O[C@@H]2O[C@H](C)[C@@H](O[C@H]3C[C@@](C)(O)[C@@H](O)[C@H](C)O3)[C@H](N(C)C)[C@H]2O)[C@@H](CC=O)C[C@@H](C)C(=O)/C=C/C(C)=C/[C@@H]1CO[C@@H]1O[C@H](C)[C@@H](O)[C@@H](OC)[C@H]1OC [Tyl, tylosin]
faecal trypsin activity (trypsin): no decrease

Compound: CC(=O)N[C@@H](CC(C)C)C(=O)N[C@@H](CC(C)C)C(=O)N[C@H](C=O)CCCNC(=N)N [leupeptin, reference compound]
trypsin-decomposing ability of P. clara (1C4) after pretreating rmPRSS2 with protease inhibitor (recombinant mouse PRSS2 [1]): lost

decomposition of rmPRSS2 (western blot) (recombinant mouse PRSS2 [1]): effect of reducing trypsin
Compound: Paraprevotella clara [P237E3b]

decomposition of rmPRSS2 (western blot) (recombinant mouse PRSS2 [1]): effect of reducing trypsin
Compound: Paraprevotella clara [P322B5]

decomposition of rmPRSS2 (western blot) (recombinant mouse PRSS2 [1]): potent trypsin-reducing ability
Compound: Paraprevotella xylaniphila [P. xylaniphila (JCM 14860) strain]

Compound: Prevotella copri [reference compound]
decomposition of rmPRSS2 (western blot) (recombinant mouse PRSS2 [1]): did not decrease the trypsin activity

Compound: Prevotella denticola [reference compound]
decomposition of rmPRSS2 (western blot) (recombinant mouse PRSS2 [1]): did not decrease the trypsin activity | binding of rmPRSS2 to the surface of bacteria (recombinant mouse PRSS2 [2]): no accumulation of trypsin was observed

decomposition of rmPRSS2 (western blot) (recombinant mouse PRSS2 [1]): had a trypsin-decomposing activity
Compound: Prevotella muris [Prevotella muris strain]

Compound: Prevotella oulorum [reference compound]
decomposition of rmPRSS2 (western blot) (recombinant mouse PRSS2 [1]): did not decrease the trypsin activity | binding of rmPRSS2 to the surface of bacteria (recombinant mouse PRSS2 [2]): no accumulation of trypsin was observed

decomposition of rmPRSS2 (western blot) (recombinant mouse PRSS2 [1]): had a trypsin-decomposing activity
Compound: Prevotella rara [Prevotella rara (MSP 0081) strain]

decomposition of rmPRSS2 (western blot) (recombinant mouse PRSS2 [1]): had a trypsin-decomposing activity
Compound: Prevotella rodentium [Prevotella rodentium strain]

Compound: Prevotella stercorea [reference compound]
decomposition of rmPRSS2 (western blot) (recombinant mouse PRSS2 [1]): did not decrease the trypsin activity

Compound: tunicamycin [reference compound]
decomposition of rmPRSS2 by P. clara pretreated with sugar chain synthesis inhibitor (recombinant mouse PRSS2 [1]; P. clara cultured overnight with inhibitor): no decomposition of trypsin was observed | binding of rmPRSS2 to the surface of P. clara treated with sugar chain synthesis inhibitor (recombinant mouse PRSS2 [2]): no accumulation of trypsin on the surface
